Assay results reported in US4288609A, “Quaternary ammonium derivatives of adamantane with antimicrobic activity” (priority 1976, dated 1981).
Where two headings read alike, the source gives them in different places.

Assays:
[1] = tested on: all the micro-organisms tested; experiment: Speed of sterilising action, all micro-organisms; assay type: cell-based; settings: even with a very low concentration
Experimental: (§1) The strains, inoculants, culture broths and experimental methods are as already seen for calculating the M.I.C. in vitro. The antimicrobic substances were tested at concentrations of 0.1, 0.25, 0.5 and 1 g/l, the contact times taken into consideration are 0, 1, 2.5, 5, 7.5, 10, 15, 30 and 60 minutes.
(§2) The samples which at the 7th day of incubation still had no growth of micro-organisms which could be observed macroscopically and/or microscopically were considered sterile.
(§3) The results are recorded in Table 3 in terms of sterilization time expressed in minutes.

[2] = tested on: Streptococ. Henclyt. 0203; experiment: M.I.C. in vitro, gram+ Streptococ. Henclyt. (Table 1); assay type: cell-based; settings: read-out: M.I.C.
Procedure, shortened: (§4)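 Inoculate culture media with a predetermined germ count, then add measured quantities of compound. Incubate for 24 or 48 hours at 30° or 37° C. as suited to each micro-organism. Assess growth in the broth and record the lowest inhibitory concentration in γ/ml.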

[3] = tested on: Trichophyton Mentagrophytes; experiment: Topical activity upon dermatophytis from Trichophyton in cavies (Table 6); assay type: in vivo, Albino cavies; settings: in vivo
Experimental: Albino cavies of 250-300 g are infected, after depilation and scarification of a circular area of dorsal skin upon which there are supplied 0.1 ml of a suspension of microconidia of Trichophyton Mentagrophytes from the Pasteur Institute collection, obtained from a culture of 15 days upon Saboureaud agar. 24 Hours after infection topical treatment is started and is continued for two weeks (once per day).
The compounds to be tested are dissolved or suspended at the desired concentration, in a water-alcohol mixture (75/25 v/v) containing 0.75% by weight of carboxymethyl-cellulose (CMC). […] Each single application is carried out using 0.25 ml of the suspension or solution obtained as described above.
Fourteen days after infection the lesions are assessed. Assessment is carried out by attributing index numbers depending upon the seriousness of the lesions formed, as follows:
The substances under examination were tested at concentrations of 5 and 2.5% by weight.

[4] = tested on: Trich. Foetus ISM 66/23; experiment: MIC protozoa, Trichomonas foetus (Table 2); assay type: cell-based; settings: Tritrichomonas foetus, +10% serum (head); Kupferberg Trichomonas broth with 5% of horse serum; read-out: MIC
Procedure, shortened: (§5)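 Test substance was added at set concentrations to Kupferberg Trichomonas broth with 5% horse serum, inoculated with T. vaginalis or T. foetus at 3.5% of medium volume. Growth was assessed after 24 or 48 h incubation at 30° or 37 °C. MIC is the minimum concentration inhibiting growth.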

[5] = tested on: Klens. Pneum. ISM; experiment: M.I.C. in vitro, gram- Klens. Pneum. (Table 1); assay type: cell-based; settings: read-out: M.I.C.
Procedure, shortened: as §4

[6] = Acute oral toxicity in mice (Table 4); settings: mouse, in vivo, po, LD50, oral, mice, 14 days
Experimental: The substances were administered orally to groups of 10 female mice CF1 of average weight of about 20 grams, in aqueous solution and in such way that the total volume administered would be in each case 1 ml/100 g of weight.

[7] = tested on: gram+ and gram- bacterial strains; experiment: Activity in vitro on gram+ and gram- bacteria, overall; assay type: cell-based; settings: gram positive and gram negative strains, low concentrations
Experimental: The method for evaluating the activity in vitro against bacteria, fungi and protozoa consists in introducing calculated quantities of the substance, the activity of which it is desired to test, into culture media already inoculated with a predetermined number of test germs.
After 24 or 48 hours of incubation at 30° or 37° C., according to the micro-organism being tested, it is possible to evaluate the growth of the same in the culture broth; in this manner the minimum concentration (M.I.C.) which inhibits the growth of the micro-organisms in vitro is determined.
In table 1 there are recorded the M.I.C. values in γ/ml of the products subject of the present invention, against certain gram+ and gram- bacterial strains, some of which are pathogenic towards human beings.

[8] = tested on: Candida Albic. SKF 2270; experiment: MIC yeasts, Candida albicans (Table 2); assay type: cell-based; settings: for MIC: Candida, Sabourand broth, read-out: MIC
Procedure, shortened: (§6)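 Candida inoculum (10^3 cells/ml, from 24 h cultures at 30° C) in Sabouraud broth containing graded compound concentrations.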

[9] = tested on: Diplococcus Pneum. ISM; experiment: M.I.C. in vitro, gram+ Diplococcus Pneum. (Table 1); assay type: cell-based; settings: read-out: M.I.C.
Procedure, shortened: as §4

[10] = tested on: Trych. Mentagr. 1st.Pastuer; experiment: MIC mildews, Trichophyton mentagrophytes (Table 2); assay type: cell-based; settings: Trichophyton mentagrophytes, Sabourand broth, read-out: MIC
[11] = tested on: Staph.Aureus Tour; experiment: M.I.C. in vitro, gram+ Staph. Aureus (Table 1); assay type: cell-based, Staphylococcus Aureus; settings: Staphylococcus aureus, read-out: M.I.C.
Procedure, shortened: as §4

[12] = tested on: Candida Pseudotrop. ATCC 2512; experiment: MIC yeasts, Candida pseudotropicalis (Table 2); assay type: cell-based; settings: Candida, Sabourand broth, read-out: MIC
Procedure, shortened: as §6

[13] = tested on: Proteus Vulc. ATCC 881; experiment: M.I.C. in vitro, gram- Proteus Vulc. (Table 1); assay type: cell-based; settings: read-out: M.I.C.
Procedure, shortened: as §4

[14] = tested on: Trichophyton Mentagrophytes Ist. Pasteur; experiment: Speed of sterilising action, Trichophyton Mentagrophytes (Table 3); assay type: cell-based
Experimental: as §1, §2, §3

[15] = tested on: Nicrosporum Canis ATCC 11621; experiment: MIC mildews, Microsporum canis (Table 2); assay type: cell-based; settings: Microsporum canis, Sabourand broth, read-out: MIC
[16] = tested on: Pseudom.Aer. ATCC 1014; experiment: M.I.C. in vitro, gram- Pseudom. Aer. (Table 1); assay type: cell-based, Pseudomonas Aeruginosa; settings: Pseudomonas aeruginosa, read-out: M.I.C.
Procedure, shortened: as §4

[17] = tested on: Trich. Vaginalis ISM 66/22; experiment: MIC protozoa, Trichomonas vaginalis (Table 2); assay type: cell-based; settings: Trichomonas vaginalis, +10% serum (head); Kupferberg Trichomonas broth with 5% of horse serum; read-out: MIC
Procedure, shortened: as §5

[18] = tested on: Esch. Coli. SKF 12140; experiment: M.I.C. in vitro, gram- Esch. Coli (Table 1); assay type: cell-based, Escherichia Coli; settings: Escherichia coli, read-out: M.I.C.
Procedure, shortened: as §4

[19] = tested on: Candida Albicans SKF 2270; experiment: Speed of sterilising action, Candida Albicans (Table 3); assay type: cell-based
Experimental: as §1, §2, §3

## CCCCCCCCCCCC[N+](C)(C)CCNC(=O)C12CC3CC(CC(C3)C1)C2 [Example 8]
[1]
  sterilising action (in words): swift sterilising action on all the micro-organisms tested
[2]; +10% serum
  MIC: 1 µg/mL
[2]; without serum
  MIC: < 0.1 µg/mL
[3]
  in vivo activity against Trichophyton Mentagrophytes (in words): excellent "in vivo" activity against Trichophyton Mentagrophytes
[4]
  MIC: 1 µg/mL
[5]; +10% serum
  MIC: 50 µg/mL
[5]; without serum
  MIC: 5 µg/mL
[6]
  LD50 at 336 h: 760 mg/kg
[7]
  antibacterial activity (in words): powerful antibacterial activity at low concentrations
[8]; +10% serum
  MIC: 20 µg/mL
[8]; without serum
  MIC: 0.2 µg/mL
[8]; in the absence of serum
  activity on Candida albicans, times greater than that of cetyl pyridine chloride: about 25 times
[8]; in the presence of 10% of horse serum
  activity on Candida albicans, times higher than that of cetyl pyridine chloride: 5-10 times
[9]; +10% serum
  MIC: 5 µg/mL
[9]; without serum
  MIC: 1 µg/mL
[10]; +10% serum
  MIC: 5 µg/mL
[10]; without serum
  MIC: 0.1 µg/mL
[11]; +10% serum
  MIC: 5 µg/mL
[11]; without serum
  MIC: < 0.1 µg/mL
[12]; ATCC2512, +10% serum
  MIC: 20 µg/mL
[12]; ATCC2512, without serum
  MIC: < 0.1 µg/mL
[13]; +10% serum
  MIC: 100 µg/mL
[13]; without serum
  MIC: 5 µg/mL
[14]; 0.1 g/l
  sterilization time: 60 min
[14]; 0.25 g/l
  sterilization time: 60 min
[14]; 0.5 g/l
  sterilization time: 10 min
[14]; 1 g/l
  sterilization time: 5 min
[15]; ATCC11621, +10% serum
  MIC: 20 µg/mL
[15]; ATCC11621, without serum
  MIC: 0.1 µg/mL
[16]; ATCC1014, +10% serum
  MIC: 50 µg/mL
[16]; ATCC1014, without serum
  MIC: 10 µg/mL
[17]
  MIC: 2 µg/mL
[18]; +10% serum
  MIC: 100 µg/mL
[18]; without serum
  MIC: 2 µg/mL
[19]; 0.1 g/l
  sterilization time: 60 min
[19]; 0.25 g/l
  sterilization time: 15 min
[19]; 0.5 g/l
  sterilization time: 2.5 min
[19]; 1 g/l
  sterilization time: 2.5 min
